For orientation: IC50 means the concentration needed to halve the response being measured. As usually defined, the inhibition in vivo is the drop in the measured response relative to a control, in per cent.

The test system of data set [1] is L6. In words: Cytotoxicity against rat L6 cells assessed as decrease in cell viability after 72 hrs by resazurin dye based fluorescence analysis. To be noted: for IC50: Rattus norvegicus, L6, 72 h; for Activity: rat, l6, 72 h.
Data set [2] deals with Schistosoma mansoni. In words: Antischistosomal activity against Schistosoma mansoni strain Liberian cercariae infected in NMRI mouse assessed as reduction of worm burden in portal and mesenteric veins and liver at 400 mg/kg, po treated after 49 days of infection measured 16 to 21 days post treatment. The format is functional.
Data set [3] has as its system Schistosoma mansoni. In words: Antischistosomal activity against adult Schistosoma mansoni assessed as decrease in viability after 72 hrs by microscopic analysis. Format: functional, organism-based.
The nature of data set [4]: Selectivity index, ratio of IC50 for rat L6 cells to IC50 for adult Schistosoma mansoni.
For data set [5], the system named is Schistosoma mansoni. As to the kind of experiment: Antischistosomal activity against newly transformed Schistosoma mansoni cercariae assessed as decrease in viability after 72 hrs by microscopic analysis. The format is functional, organism-based.
Data set [6] deals with Schistosoma mansoni. As to the kind of experiment: Antischistosomal activity against adult Schistosoma mansoni assessed as decrease in viability at 25 ug/ml after 72 hrs by microscopic analysis. The format is functional, organism-based.
Data set [7] has as its system Schistosoma mansoni. As to the kind of experiment: Antischistosomal activity against newly transformed Schistosoma mansoni cercariae assessed as decrease in viability at 12.5 ug/ml after 72 hrs by microscopic analysis. Format: functional, organism-based.

Molecules are shown by their SMILES. The source made the active and inactive calls. The rule behind the calls is not given here. Bounds are passed on as bounds.

Take `CC(C)C[C@@]12OO[C@]3(C)OC(C)(CCC31)O2`: the IC50 came to 4.9 µM in data set [1], 2 µM in data set [3] and 2 µM in data set [5]. Moreover, the inhibition in vivo at 400 mg/kg in data set [2] was 0%. Moreover, the “Ratio IC50” value in data set [4] is on record as 3.

`CC(=O)[C@@]1(Cc2ccc(C)cc2)CC[C@]2(C)OO[C@@]1(C)O2`: the IC50 came out at 15.3 µM in data set [1], 7.4 µM in data set [3] and 12.2 µM in data set [5]. Further, the inhibition in vivo at 400 mg/kg in data set [2] turned out to be 9.9%. For the same compound, in data set [4], the “Ratio IC50” value is 7.4.

Regarding `CC(=O)CCC1(Cc2ccc(C)cc2)[C@]2(C)OO[C@@]1(C)OO2` (some centres undefined), the IC50 in data set [1] came out at 2.5 µM; in data set [3], 9.8 µM; in data set [5], 5.2 µM. Besides, in data set [4], the “Ratio IC50” value turned out to be 0.3.

On to `CC(=O)[C@]1(Cc2ccc([N+](=O)[O-])cc2)CC[C@]2(C)OO[C@@]1(C)O2`, for which the results for the IC50 in data set [1], in data set [3] and in data set [5] were 22.7 µM, 7 µM and 5.7 µM, respectively. In addition, the “Ratio IC50” value in data set [4] is listed as 1.7.

As to `CC(C)(C)C1CCC2(CC1)OO[Si](C)(C)CC[Si](C)(C)OO2`, the Activity entry in data set [1] is “Non-toxic”. In addition, the IC50 in data set [5] came out at 4 µM. Further, the inhibition entry in data set [6] was “inactive”.

For the compound `CCCC[C@]1(C(C)=O)CCC2(C)OOC1(C)O2` (single isomer, unassigned), the Activity entry in data set [1] was “Non-toxic”. Moreover, in data set [3], the IC50 turned out to be 12.2 µM. Besides, the inhibition result in data set [7] was “inactive”.

`CC(=O)[C@@]1(Cc2ccc([N+](=O)[O-])cc2)CC[C@]2(C)OO[C@@]1(C)O2`: in data set [1], the Activity entry is recorded as “Non-toxic”. The IC50 was determined as 22.8 µM in data set [3] and 7.7 µM in data set [5].

On to `C[C@]12C[C@](C34CC5CC(CC(C5)C3)C4)(OO1)OO2`, for which the IC50 in data set [1] was less than 0.4 µM; in data set [3], 2 µM; in data set [5], 1.3 µM. In data set [4], the “Ratio IC50” value is on record as less than 0.2.

Regarding `CC(=O)[C@@]1(Cc2ccc(Br)cc2)CC[C@]2(C)OO[C@@]1(C)O2`, the figures for the IC50 in data set [1], in data set [3] and in data set [5] were 8.1 µM, 4.2 µM and 2.2 µM, respectively. For the same compound, in data set [2], the inhibition in vivo at 400 mg/kg was 44.3%. Moreover, the “Ratio IC50” value in data set [4] came out at 1.6.

For `CC(=O)[C@]1(Cc2ccc(Cl)cc2)CC[C@]2(C)OO[C@@]1(C)O2`, the IC50 in data set [1] came to 2.7 µM; in data set [3], 4.2 µM; in data set [5], 2.8 µM. In data set [2], the inhibition in vivo at 400 mg/kg is 42.9%. Moreover, the “Ratio IC50” value in data set [4] came to 1.3.

In the case of `CC(=O)[C@@]1(Cc2ccc(Cl)cc2)CC[C@]2(C)OO[C@@]1(C)O2`, the Activity result in data set [1] is “Non-toxic”. Besides, the figures for the IC50 in data set [3] and in data set [5] were 11.2 µM and 3.2 µM, respectively.

Consider `CC(=O)CCC1(Cc2ccc(Br)cc2)[C@]2(C)OO[C@@]1(C)OO2` (some centres undefined), for which the 50% inhibitory concentration (IC50) stood at 2.5 µM in data set [1], 8.4 µM in data set [3] and 1.3 µM in data set [5]. Also, in data set [4], the “Ratio IC50” value amounted to 0.4.

Regarding `CC1[C@]2(C)OO[C@@]1(C13CC4CC(CC(C4)C1)C3)OO2` (some centres undefined), the IC50 was less than 0.4 µM in data set [1], 3.9 µM in data set [3] and 4 µM in data set [5]. For the same compound, the “Ratio IC50” value in data set [4] is less than 0.1.

Take `CC(=O)[C@@]1(Cc2ccccc2)CC[C@]2(C)OO[C@@]1(C)O2`: the Activity entry in data set [1] is “Non-toxic”. For the same compound, the concentration for half-maximal inhibition (IC50) was 10.3 µM in data set [3] and 5.6 µM in data set [5].

On to `CC(=O)[C@]1(Cc2ccc(Br)cc2)CC[C@]2(C)OO[C@@]1(C)O2`, for which the IC50 in data set [1] came out at 7.3 µM; in data set [3], 6.6 µM; in data set [5], 6.2 µM. In addition, in data set [4], the “Ratio IC50” value stood at 1.1.

For `CC(=O)[C@]1(Cc2ccccc2)CC[C@]2(C)OO[C@@]1(C)O2`, the results for the IC50 in data set [1], in data set [3] and in data set [5] were 5.4 µM, 1.8 µM and 0.4 µM, respectively. Further, the inhibition in vivo at 400 mg/kg in data set [2] is 6.2%. Moreover, in data set [4], the “Ratio IC50” value is reported as 2.9.

Turning to `CC[C@]12C[C@](C34CC5CC(CC(C5)C3)C4)(OO1)OO2`, the IC50 in data set [1] is less than 0.4 µM; in data set [3], 2 µM; in data set [5], 1.8 µM. In data set [4], the “Ratio IC50” value is on record as less than 0.2.

With `CC(=O)CCC1(Cc2ccc(Cl)cc2)[C@]2(C)OO[C@@]1(C)OO2` (some centres undefined), the Activity result in data set [1] is “Non-toxic”. The IC50 in data set [3] was determined as 15.4 µM; in data set [5], 3.5 µM.

For `CC(C)C[C@]12OO[C@](C)(OO1)C2C12CC3CC(CC(C3)C1)C2` (some centres undefined), the IC50 in data set [1] was determined as 1 µM; in data set [3] it was 1.8 µM; in data set [5], 0.9 µM. Further, the “Ratio IC50” value in data set [4] stood at 0.5.

On to `CC(=O)[C@]1(Cc2ccc(C)cc2)CC[C@]2(C)OO[C@@]1(C)O2`, for which, in data set [1], the Activity entry is given as “Non-toxic”. Also, the IC50 in data set [3] was found to be 10 µM. In data set [7], the inhibition result is “inactive”.

With `CC[C@]12OO[C@@]3(CC(C)C)OC(C)(CCC31)O2`, the IC50 in data set [1] was 24.4 µM; in data set [3], 4.4 µM; in data set [5], 2.7 µM. Further, the inhibition in vivo at 400 mg/kg in data set [2] is 26.7%. Besides, the “Ratio IC50” value in data set [4] is 5.7.

As to `CC(=O)CCC1(Cc2ccccc2)[C@]2(C)OO[C@@]1(C)OO2` (some centres undefined), the Activity result in data set [1] is “Non-toxic”. The IC50 is 10.9 µM in data set [3] and 1.6 µM in data set [5].

On to `C[Si]1(C)CC[Si](C)(C)OOC2(CCCCCCCCCCC2)OO1`, for which the Activity result in data set [1] is recorded as “Non-toxic”. The IC50 in data set [5] stood at 7.2 µM. For the same compound, in data set [6], the inhibition result was “inactive”.

The record behind these values is ChEMBL document CHEMBL3596151, “Elucidation of the in vitro and in vivo activities of bridged 1,2,4-trioxolanes, bridged 1,2,4,5-tetraoxanes, tricyclic monoperoxides, silyl peroxides, and hydroxylamine derivatives against Schistosoma mansoni” (Bioorg Med Chem, 2015).
